Assay [1] deals with osteomyelitis accompanying adjuvant arthritis (neutrophil infiltration into joints). Kind of assay: Suppression of osteomyelitis accompanying rat adjuvant arthritis. The class given is in vivo. Particulars: for Osteomyelitis score for the intertarsal and tarsometatarsal joints / Osteomyelitis score for the talocrural joint region: Lewis rats, scored day 22, grades 0-3, mean ± SE; for osteomyelitis suppressing effect (in words): rat adjuvant arthritis, summary of Table 1. The procedure: 0.1 mg of inactivated dried Mycobacterium butyricum was suspended in 0.1 ml of liquid paraffin, and this was injected into the left hind foot pad of 8-week old female Lewis rats. […] As a control group, the subcutaneous administration of sterile distilled water was carried out. One day after the completion of the administration (day 22) the rats were sacrificed, the skin and muscle removed from the right hind limb and, following decalcification, pathological specimens were prepared. […] Furthermore, Diclofenac (Compound 4) and Indomethacin (Compound 5) were used as existing anti-inflammatory drugs. The results obtained are shown in Table 1 as mean values±standard errors. Using the […] multiple comparison method (parametric), the results were assigned the symbol * when significant at a level of significance of p<0.05, and the symbol ** when significant at a level of significance of p<0.01, compared to the control group in which only sterile distilled water was used.

The subject of assay [2] is acute promyelocytic leukaemia cell strain KG-1. Briefly: Suppression of KG-1 cell proliferation (MTT assay). The class given is cell-based. More on the design: unit of the concentration uncertain. The settings on record: 120 hours culture, mean ± SE. As for the experimental part: (§1) Acute promyelocytic leukaemia cell strain KG-1, T-cell type acute lymphoblastic leukaemia cell strain RPMI-8402, B-cell-type acute lymphoblastic leukaemia cell strain CCRF-SB, chronic myelocytic leukaemia cell strain K562 and myeloblastoma cell strain ML-2 were prepared at concentrations of 2×10^4 or 4×10^4 cells per ml of culture medium. In each case, 0.05 ml quantities were added per well of a 96 well culture plate and culturing carried out at a carbon dioxide concentration of 5% for 24 hours at 37° C. Furthermore, 0.05 ml quantities of culture medium to which Compound 1 had been added were added to the aforesaid culture plate, and culturing carried out under the same conditions for 120 hours. The number of cells when the culturing was completed was calculated by the MTT calorimetric assay and the percentage suppression of tumour cell proliferation in terms of a control group to which no compound had been added was determined.
(§2) As well as Compound 1, there were used as test compounds 1-hydroxyethane-1,1-bisphosphonic acid disodium salt (Compound 6) and (4-chlorophenylthio)methane-1,1-bisphosphonic acid disodium salt (Compound 7). The results are shown in Table 2 as mean values±standard errors.
(§3) Using Dunett multiple comparison method (parametric), the results were assigned the symbol * when significant at a level of significance of p<0.05, and the symbol *** when significant at a level of significance of p<0.001, compared to the control group.
On the technique in general: Tetrazolium assays rely on reduction of a dye to a coloured formazan, in cell work by metabolically active cells.

Assay [3] relates to T-cell type acute lymphoblastic leukaemia cell strain RPMI-8402. Briefly: Suppression of RPMI-8402 cell proliferation (MTT assay). The settings on record: 120 hours culture, mean ± SE. It counts as cell-based. The procedure: as §1, §2, §3
Assay [4] deals with B-cell-type acute lymphoblastic leukaemia cell strain CCRF-SB. Kind of assay: Suppression of CCRF-SB cell proliferation (MTT assay). On the set-up: unit of the concentration uncertain. Particulars: 120 hours culture, mean ± SE. It counts as cell-based. As for the experimental part: as §1, §2, §3
Assay [5] concerns chronic myelocytic leukaemia cell strain K562. Kind of assay: Suppression of K562 cell proliferation (MTT assay). It counts as cell-based. On the set-up: unit of the concentration uncertain. Particulars: 120 hours culture, mean ± SE. As for the experimental part:
as §1, §2, §3

The subject of assay [6] is myeloblastoma cell strain ML-2. Briefly: Suppression of ML-2 cell proliferation (MTT assay). It counts as cell-based. On the set-up: unit of the concentration uncertain. The settings on record: 120 hours culture, mean ± SE. The procedure: as §1, §2, §3
The subject of another assay is tumour cells. Kind of assay: Suppression of leukaemia cell and myeloma cell proliferation (summary over all cell strains). Particulars: summary of Table 2. It counts as cell-based. The procedure:
as §1
As well as Compound 1, there were used as test compounds 1-hydroxyethane-1,1-bisphosphonic acid disodium salt (Compound 6) and (4-chlorophenylthio)methane-1,1-bisphosphonic acid disodium salt (Compound 7). The results are shown in Table 2 as mean values±standard errors. […]

Marks after values point to notes of the source that are not given here.

Consider six compounds from patent US6555529B1, “Remedies for intramedullary diseases” (Toray Industries, Inc., priority 1997, dated 2003).

As for `NCCCC(O)(P(=O)(O)O)P(=O)(O)O` [Compound 2, 4-amino-1-hydroxybutane-1,1-bisphosphonic acid], in assay [1] (0.31 mg/kg, Table 1-2), the “Osteomyelitis score for the intertarsal and tarsometatarsal joints” value is given as 0.2 ± 0.17**; the “Osteomyelitis score for the talocrural joint region” value was 0.0 ± 0.0**. Further, the “osteomyelitis suppressing effect (in words)” value in assay [1] is recorded as “suppressed”.
In the case of `O=P(O)(O)C(O)(Cc1cccnc1)P(=O)(O)O` [Compound 3, 2-(3-pyridyl)-1-hydroxyethane-1,1-bisphosphonic acid], in assay [1] (0.31 mg/kg, Table 1-3), the “Osteomyelitis score for the intertarsal and tarsometatarsal joints” value was 0.0 ± 0.0**; the “Osteomyelitis score for the talocrural joint region” value is 0.0 ± 0.0**. The “osteomyelitis suppressing effect (in words)” value in assay [1] is listed as “suppressed”.
For the compound `O=C(O)Cc1ccccc1Nc1c(Cl)cccc1Cl` [Compound 4, Diclofenac, reference compound], in assay [1] (0.1 mg/kg, Table 1-4), the “Osteomyelitis score for the intertarsal and tarsometatarsal joints” value is 1.8 ± 0.2; the “Osteomyelitis score for the talocrural joint region” value is recorded as 1.2 ± 0.3. In assay [1], the “osteomyelitis suppressing effect (in words)” value is “weak”.
As to `COc1ccc2c(c1)c(CC(=O)O)c(C)n2C(=O)c1ccc(Cl)cc1` [Compound 5, Indomethacin, reference compound], in assay [1] (0.1 mg/kg, Table 1-5), the “Osteomyelitis score for the intertarsal and tarsometatarsal joints” value amounted to 2.5 ± 0.2; the “Osteomyelitis score for the talocrural joint region” value is 1.8 ± 0.4. For the same compound, in assay [1], the “osteomyelitis suppressing effect (in words)” value is reported as “weak”.
On to `CC(O)(P(=O)([O-])[O-])P(=O)(O)O.[Na+].[Na+]` [Compound 6, 1-hydroxyethane-1,1-bisphosphonic acid disodium salt], for which the “Percentage suppression of KG-1 cell proliferation” value is on record as 40.7 ± 1.7*** % in assay [2] (1 (unit uncertain)), 1.6 ± 2.1% in assay [2] (10 (unit uncertain)) and 2.9 ± 2.4% in assay [2] (100 (unit uncertain)). For the same compound, the “Percentage suppression of RPMI8402 cell proliferation” value is 28.2 ± 2.0*** % in assay [3] (1 mM), −3.4 ± 1.3% in assay [3] (10 mM) and 2.9 ± 1.5% in assay [3] (100 mM). The “Percentage suppression of CCRF-SB cell proliferation” value in assay [4] (1 (unit uncertain)) is 42.1 ± 0.9*** %; in assay [4] (10 (unit uncertain)), 2.2 ± 0.8%; in assay [4] (100 (unit uncertain)), 0.4 ± 1.2%. Besides, the entries for the “Percentage suppression of K562 cell proliferation” value in assay [5] (1 (unit uncertain)), in assay [5] (10 (unit uncertain)) and in assay [5] (100 (unit uncertain)) were 44.4 ± 1.3*** %, −2.5 ± 0.3% and 3.2 ± 0.6%, respectively. For the same compound, the “Percentage suppression of ML-2 cell proliferation” value in assay [6] (1 (unit uncertain)) was 147.2 ± 20.4*** %; in assay [6] (10 (unit uncertain)) it was −20.6 ± 17.2%; in assay [6] (100 (unit uncertain)), 16.0 ± 17.2%. Moreover, in the assay with tumour cells, the “proliferation of tumour cells (in words)” value is listed as “suppressed”.
For the compound `O=P([O-])([O-])C(Sc1ccc(Cl)cc1)P(=O)(O)O.[Na+].[Na+]` [Compound 7, (4-chlorophenylthio)methane-1,1-bisphosphonic acid disodium salt], the figures for the “Percentage suppression of KG-1 cell proliferation” value in assay [2] (1 (unit uncertain)), in assay [2] (10 (unit uncertain)) and in assay [2] (100 (unit uncertain)) were 97.1 ± 0.6*** %, −1.1 ± 1.1% and 2.2 ± 1.6%, respectively. For the same compound, the “Percentage suppression of RPMI8402 cell proliferation” value is reported as 87.2 ± 0.6*** % in assay [3] (1 mM), −2.5 ± 2.0% in assay [3] (10 mM) and 7.4 ± 6.3% in assay [3] (100 mM). The “Percentage suppression of CCRF-SB cell proliferation” value was 61.3 ± 1.1*** % in assay [4] (1 (unit uncertain)), 0.1 ± 1.9% in assay [4] (10 (unit uncertain)) and 3.5 ± 2.2% in assay [4] (100 (unit uncertain)). Moreover, the “Percentage suppression of K562 cell proliferation” value in assay [5] (1 (unit uncertain)) is given as 97.8 ± 0.3*** %; in assay [5] (10 (unit uncertain)) it was −1.0 ± 1.3%; in assay [5] (100 (unit uncertain)), −3.1 ± 0.5%. The “Percentage suppression of ML-2 cell proliferation” value in assay [6] (1 (unit uncertain)) is reported as 130.4 ± 11.2*** %; in assay [6] (10 (unit uncertain)), 7.3 ± 7.3%; in assay [6] (100 (unit uncertain)) it was 42.8 ± 10.1* %. In addition, in the assay with tumour cells, the “proliferation of tumour cells (in words)” value is “suppressed”.
